Results published in ChEMBL document CHEMBL1165890, “Inside HDAC with HDAC inhibitors” (Eur J Med Chem, 2010).
Values belong to the compound of their own block, whether it stands above or below them. Non-standard residues stand in square brackets, D forms with d. Residues, ends and D or L forms follow the SMILES beside them. *: point of attachment. Ala(indol-2-yl) = N[C@@H](Cc1cc2ccccc2[nH]1)C(=O)O; Asu = N[C@@H](CCCCCC(=O)O)C(=O)O; β3hI = CC[C@H](C)[C@H](N)CC(=O)O; NHOH = ON*

Experiments:
Histone deacetylase = details: hela
Description: Inhibition of HDAC in human HeLa cells

Histone deacetylase 1 = Histone deacetylase 1 (Homo sapiens, UniProt Q13547); experiment: Inhibition of recombinant HDAC1
Chain of Histone deacetylase 1 (Q13547 whole entry): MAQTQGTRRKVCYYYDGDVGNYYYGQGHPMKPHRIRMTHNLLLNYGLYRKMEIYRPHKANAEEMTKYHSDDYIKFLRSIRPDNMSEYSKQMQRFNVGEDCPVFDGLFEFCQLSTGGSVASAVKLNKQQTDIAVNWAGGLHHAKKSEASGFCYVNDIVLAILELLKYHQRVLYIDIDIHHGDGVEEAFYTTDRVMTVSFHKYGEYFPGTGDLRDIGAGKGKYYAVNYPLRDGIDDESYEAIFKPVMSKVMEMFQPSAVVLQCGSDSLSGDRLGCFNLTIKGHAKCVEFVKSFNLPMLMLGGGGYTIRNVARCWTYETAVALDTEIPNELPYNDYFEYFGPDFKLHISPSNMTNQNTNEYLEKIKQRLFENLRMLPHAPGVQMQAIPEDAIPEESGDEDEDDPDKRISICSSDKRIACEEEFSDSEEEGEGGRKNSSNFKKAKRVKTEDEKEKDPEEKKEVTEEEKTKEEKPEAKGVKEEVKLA

Histone deacetylase 2 = Histone deacetylase 2 (Homo sapiens, UniProt Q92769); experiment: Inhibition of recombinant HDAC2
Chain of Histone deacetylase 2 (Q92769 whole entry): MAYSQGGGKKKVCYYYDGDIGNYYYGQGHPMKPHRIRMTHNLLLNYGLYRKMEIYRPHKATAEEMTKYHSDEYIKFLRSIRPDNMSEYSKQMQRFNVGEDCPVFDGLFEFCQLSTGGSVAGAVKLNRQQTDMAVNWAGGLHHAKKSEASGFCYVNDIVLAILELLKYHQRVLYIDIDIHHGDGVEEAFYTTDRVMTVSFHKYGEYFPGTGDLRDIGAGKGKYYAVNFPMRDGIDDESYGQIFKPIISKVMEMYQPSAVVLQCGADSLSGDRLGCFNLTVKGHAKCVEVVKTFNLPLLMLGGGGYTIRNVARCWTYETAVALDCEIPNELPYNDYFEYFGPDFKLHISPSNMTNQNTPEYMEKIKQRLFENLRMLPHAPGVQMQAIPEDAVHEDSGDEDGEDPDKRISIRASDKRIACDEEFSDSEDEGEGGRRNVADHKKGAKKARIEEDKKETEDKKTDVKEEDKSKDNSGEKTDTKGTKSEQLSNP

Histone deacetylase 3 = Histone deacetylase 3 (Homo sapiens, UniProt O15379); experiment: Inhibition of recombinant HDAC3
Chain of Histone deacetylase 3 (O15379 whole entry): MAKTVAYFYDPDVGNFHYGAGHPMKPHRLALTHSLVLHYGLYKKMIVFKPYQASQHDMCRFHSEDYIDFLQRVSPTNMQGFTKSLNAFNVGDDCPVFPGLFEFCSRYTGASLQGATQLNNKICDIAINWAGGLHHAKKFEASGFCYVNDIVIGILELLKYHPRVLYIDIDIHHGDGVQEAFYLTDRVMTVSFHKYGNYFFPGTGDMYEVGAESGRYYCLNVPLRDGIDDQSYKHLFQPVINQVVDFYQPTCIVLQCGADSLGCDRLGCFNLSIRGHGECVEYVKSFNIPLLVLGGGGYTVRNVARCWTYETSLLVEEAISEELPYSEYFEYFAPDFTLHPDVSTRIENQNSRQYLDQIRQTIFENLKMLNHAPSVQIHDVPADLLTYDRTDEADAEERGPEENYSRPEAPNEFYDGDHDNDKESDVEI

[1] = target: T1, Protein deacetylase HDAC6 (Homo sapiens, UniProt Q9UBN7); experiment: Inhibition of recombinant HDAC6
T1 sequence (Q9UBN7 whole entry): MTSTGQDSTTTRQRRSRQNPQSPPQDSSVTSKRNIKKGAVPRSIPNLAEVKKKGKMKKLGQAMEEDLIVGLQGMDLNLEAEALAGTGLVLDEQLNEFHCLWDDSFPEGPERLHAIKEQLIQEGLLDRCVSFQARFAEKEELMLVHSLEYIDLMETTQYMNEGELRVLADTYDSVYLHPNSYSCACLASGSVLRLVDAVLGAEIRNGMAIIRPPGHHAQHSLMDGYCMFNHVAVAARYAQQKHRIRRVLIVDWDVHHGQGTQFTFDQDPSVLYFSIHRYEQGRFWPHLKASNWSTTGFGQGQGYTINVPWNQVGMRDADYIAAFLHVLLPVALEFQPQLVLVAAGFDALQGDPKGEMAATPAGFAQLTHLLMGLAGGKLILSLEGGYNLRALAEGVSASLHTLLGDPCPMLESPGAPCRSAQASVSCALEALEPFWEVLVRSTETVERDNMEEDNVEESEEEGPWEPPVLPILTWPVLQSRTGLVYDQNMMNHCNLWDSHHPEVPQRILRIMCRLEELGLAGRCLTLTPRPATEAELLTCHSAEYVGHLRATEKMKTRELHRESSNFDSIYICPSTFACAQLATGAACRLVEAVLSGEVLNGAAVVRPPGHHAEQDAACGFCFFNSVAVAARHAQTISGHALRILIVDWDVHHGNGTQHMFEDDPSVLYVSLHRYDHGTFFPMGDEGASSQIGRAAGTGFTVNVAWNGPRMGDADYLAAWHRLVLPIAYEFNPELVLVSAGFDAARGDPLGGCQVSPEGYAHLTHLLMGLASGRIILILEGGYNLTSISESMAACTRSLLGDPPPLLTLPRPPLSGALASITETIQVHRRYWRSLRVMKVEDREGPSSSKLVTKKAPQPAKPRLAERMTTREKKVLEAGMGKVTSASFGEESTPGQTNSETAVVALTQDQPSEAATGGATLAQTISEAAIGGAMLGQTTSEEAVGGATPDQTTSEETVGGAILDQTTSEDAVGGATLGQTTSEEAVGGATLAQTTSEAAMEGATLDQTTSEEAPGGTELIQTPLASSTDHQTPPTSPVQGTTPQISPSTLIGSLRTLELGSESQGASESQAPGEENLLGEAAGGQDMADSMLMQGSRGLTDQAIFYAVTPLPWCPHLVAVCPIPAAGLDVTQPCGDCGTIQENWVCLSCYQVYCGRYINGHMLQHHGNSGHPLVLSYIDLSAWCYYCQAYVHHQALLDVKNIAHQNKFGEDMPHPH

Histone deacetylase 8 = target: T2, Histone deacetylase 8 (Homo sapiens, UniProt Q9BY41); experiment: Inhibition of recombinant HDAC8
T2 sequence (Q9BY41 whole entry): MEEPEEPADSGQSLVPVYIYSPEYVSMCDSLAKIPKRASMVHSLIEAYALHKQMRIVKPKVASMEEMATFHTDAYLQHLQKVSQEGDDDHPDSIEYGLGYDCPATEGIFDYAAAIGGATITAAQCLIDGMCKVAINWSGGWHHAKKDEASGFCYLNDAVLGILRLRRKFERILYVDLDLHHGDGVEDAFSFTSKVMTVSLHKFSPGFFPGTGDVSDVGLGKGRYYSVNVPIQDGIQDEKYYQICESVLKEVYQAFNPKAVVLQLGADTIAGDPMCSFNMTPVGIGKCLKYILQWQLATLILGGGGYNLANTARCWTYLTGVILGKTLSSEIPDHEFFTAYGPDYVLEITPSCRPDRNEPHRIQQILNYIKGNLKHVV

[2] = target: T3, Polyamine deacetylase HDAC10 (Homo sapiens, UniProt Q969S8); experiment: Inhibition of HDAC10
T3 sequence (Q969S8 whole entry): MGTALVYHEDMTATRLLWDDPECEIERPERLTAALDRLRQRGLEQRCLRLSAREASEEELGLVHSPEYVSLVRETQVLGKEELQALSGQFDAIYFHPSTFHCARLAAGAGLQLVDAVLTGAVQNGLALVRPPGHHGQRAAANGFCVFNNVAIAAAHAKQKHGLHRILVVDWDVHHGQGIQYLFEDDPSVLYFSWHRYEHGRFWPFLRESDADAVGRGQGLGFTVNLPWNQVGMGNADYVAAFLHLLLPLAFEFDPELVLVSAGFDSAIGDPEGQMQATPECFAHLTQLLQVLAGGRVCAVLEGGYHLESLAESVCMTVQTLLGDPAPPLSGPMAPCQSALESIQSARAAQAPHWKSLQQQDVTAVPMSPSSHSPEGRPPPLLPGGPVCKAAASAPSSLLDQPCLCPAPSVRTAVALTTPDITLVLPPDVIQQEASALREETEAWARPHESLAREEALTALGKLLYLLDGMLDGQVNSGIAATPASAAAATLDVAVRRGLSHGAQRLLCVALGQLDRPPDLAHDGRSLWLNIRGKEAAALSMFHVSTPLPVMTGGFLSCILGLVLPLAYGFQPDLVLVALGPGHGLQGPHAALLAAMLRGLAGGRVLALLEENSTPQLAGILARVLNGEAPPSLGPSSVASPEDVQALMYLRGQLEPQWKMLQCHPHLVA

HCT-116 = experiment: Antitumor activity against human HCT116 cells xenografted in mouse at 30 mg/kg; format: functional

IC50 (Histone deacetylase): 2000 nM
Structure (SMILES): CCC(=O)CCCCC[C@@H]1NC(=O)CNC(=O)C[C@H]([C@@H](C)CC)N(C)C(=O)[C@H](Cc2cc3ccccc3[nH]2)NC1=O

IC50 (Histone deacetylase): 19 nM
Structure (SMILES): CCC(=O)CCCCC[C@@H]1NC(=O)CNC(=O)C[C@H]([C@@H](C)CC)NC(=O)[C@H](Cc2cc3ccccc3[nH]2)NC1=O

IC50 (Histone deacetylase 1): 60 nM
IC50 (Histone deacetylase 2): 20 nM
IC50 (Histone deacetylase 3): > 20000 nM
IC50 [1]: > 20000 nM
IC50 (Histone deacetylase 8): > 20000 nM
Structure (SMILES): N=C/C=N/c1ccc(C(=O)Nc2cc(-c3cccs3)ccc2N)cc1

IC50 (Histone deacetylase): 40 nM
Structure (SMILES): CCC(=O)CCCCC[C@@H]1NC(=O)[C@H](C)NC(=O)C[C@H]([C@@H](C)CC)NC(=O)[C@H](Cc2cc3ccccc3[nH]2)NC1=O

IC50 (Histone deacetylase): > 10000 nM
Structure (SMILES): CCC(=O)CCCCC[C@@H]1NC(=O)CNC(=O)C[C@H]([C@@H](C)CC)NC(=O)[C@H](Cc2cc3ccccc3[nH]2)N(C)C1=O

IC50 (Histone deacetylase): 900 nM
Structure (SMILES): O=C(CS)NCCCCCC(=O)Nc1cccc2cccnc12

IC50 (Histone deacetylase): 900 nM
Structure (SMILES): O=C(CS)NCCCCCC(=O)Nc1ccc2ncccc2c1

IC50 (Histone deacetylase 3): > 20000 nM
IC50 [1]: > 20000 nM
IC50 (Histone deacetylase 8): > 20000 nM
Structure (SMILES): COc1ccc(C(=O)Nc2cc(-c3cccs3)ccc2N)cc1

IC50 (Histone deacetylase 8): > 20000 nM
Structure (SMILES): CC(=O)Nc1ccc(C(=O)Nc2cc(-c3cccs3)ccc2N)cc1

IC50 [2]: 280 nM
Structure (SMILES): Cn1c(/C=C/C(=O)NO)ccc1C(=O)c1ccccc1

IC50 [2]: 50 nM
Structure (SMILES): Cn1cc(/C=C/C(=O)NO)cc1C(=O)c1ccccc1

IC50 (Histone deacetylase): 2700 nM
Structure (SMILES): CC[C@H](C)[C@H]1CC(=O)NCC(=O)N[C@@H](CCCCCC(N)=O)C(=O)N[C@@H](Cc2cc3ccccc3[nH]2)C(=O)N1 (cyclo([Asu](NH2)[Ala(indol-2-yl)][β3hI]G))

IC50 (Histone deacetylase): < 1 nM
Structure (SMILES): CC[C@H](C)[C@H]1CC(=O)NCC(=O)N[C@@H](CCCCCC(=O)NO)C(=O)N[C@@H](Cc2cc3ccccc3[nH]2)C(=O)N1 (cyclo([Asu](NHOH)[Ala(indol-2-yl)][β3hI]G))

IC50 (Histone deacetylase): 300 nM
Structure (SMILES): CC[C@H](C)[C@H]1CC(=O)NCC(=O)N[C@@H](CCCCCC(=O)O)C(=O)N[C@@H](Cc2cc3ccccc3[nH]2)C(=O)N1 (cyclo([Asu][Ala(indol-2-yl)][β3hI]G))

Structure (SMILES): CC(=O)Nc1ccc(C(=O)Nc2ccccc2N)cc1 [TACEDINALINE]
inhibition in vivo at 30 mg/kg (HCT-116): 52%
